Reference: PubChem BioAssay AID248 (DTP/NCI, 2004)
Several values for one entry are separate records, joined by “and”; a condition that tells them apart may be missing. Equal values may be shown once. Toxic doses and inconclusive results are not listed. Rule as the data show it: active = T/C of 150% or more; inactive = T/C below 125%.

System: L1210 leukemia ip in BDF1 mice, survival T/C
Assay: NCI In Vivo Anticancer Drug Screen. Data for tumor model L1210 Leukemia (intraperitoneal) in B6D2F1 (BDF1) mice
Conditions: endpoint: mean survival time, higher = longer survival
Procedure, shortened: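 Transplantable tumor model; survival measured in treated vs vehicle control mice. Value = treated/control.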

Measured: T/C

CC1(C)C(=O)NC(=O)C1(C)C
inactive: dose: 1.56 mg/kg/injection, schedule: Q03HX024 (ip), vehicle: saline 106 % of control | dose: 3.12 mg/kg/injection, schedule: Q03HX024 (ip), vehicle: saline 100 % of control | dose: 3.12 mg/kg/injection, schedule: Q04DX003 (ip), vehicle: saline 100 % of control | dose: 4.12 mg/kg/injection, schedule: Q01DX009 (ip), vehicle: saline 100 % of control | dose: 6.25 mg/kg/injection, schedule: Q01DX009 (ip), vehicle: saline 106 % of control | dose: 6.25 mg/kg/injection, schedule: Q03HX024 (ip), vehicle: saline 101 % of control | dose: 6.25 mg/kg/injection, schedule: Q04DX003 (ip), vehicle: saline 104 % of control | dose: 8.25 mg/kg/injection, schedule: Q01DX009 (ip), vehicle: saline 100 % of control | dose: 12.5 mg/kg/injection, schedule: Q01DX009 (ip), vehicle: saline 102 % of control | dose: 12.5 mg/kg/injection, schedule: Q03HX024 (ip), vehicle: saline 100 % of control | dose: 12.5 mg/kg/injection, schedule: Q04DX003 (ip), vehicle: saline 104 % of control and 108 % of control | dose: 16.5 mg/kg/injection, schedule: Q01DX009 (ip), vehicle: saline 92 % of control | dose: 18.75 mg/kg/injection, schedule: Q01DX001 (ip), vehicle: saline 105 % of control | dose: 25.0 mg/kg/injection, schedule: Q01DX009 (ip), vehicle: saline 106 % of control | dose: 25.0 mg/kg/injection, schedule: Q04DX003 (ip), vehicle: saline 102 % of control and 105 % of control | dose: 33.0 mg/kg/injection, schedule: Q01DX009 (ip), vehicle: saline 105 % of control | dose: 37.5 mg/kg/injection, schedule: Q01DX001 (ip), vehicle: saline 108 % of control | dose: 50.0 mg/kg/injection, schedule: Q01DX009 (ip), vehicle: saline 102 % of control | dose: 50.0 mg/kg/injection, schedule: Q04DX003 (ip), vehicle: saline 100 % of control and 102 % of control | dose: 66.0 mg/kg/injection, schedule: Q01DX009 (ip), vehicle: saline 90 % of control | dose: 75.0 mg/kg/injection, schedule: Q01DX001 (ip), vehicle: saline 108 % of control | dose: 100.0 mg/kg/injection, schedule: Q04DX003 (ip), vehicle: saline 94 % of control | dose: 150.0 mg/kg/injection, schedule: Q01DX001 (ip), vehicle: saline 103 % of control

Cc1cc(NC(=O)NCc2ccc([N+](=O)[O-])cc2)ccc1S(=O)(=O)F
inactive: dose: 100.0 mg/kg/injection, schedule: Q04DX003 (ip), vehicle: saline with Tween-80 100 % of control | dose: 200.0 mg/kg/injection, schedule: Q04DX003 (ip), vehicle: saline with Tween-80 95 % of control | dose: 400.0 mg/kg/injection, schedule: Q04DX003 (ip), vehicle: saline with Tween-80 92 % of control

C=C1C(=O)OC2/C=C(\C)CC(O)/C=C(/C)CCC12 (stereo unspecified)
inactive: dose: 12.5 mg/kg/injection, schedule: Q04DX003 (ip), vehicle: Klucel (hydroxypropylcellulose) (HPC) 96 % of control | dose: 25.0 mg/kg/injection, schedule: Q04DX003 (ip), vehicle: Klucel (hydroxypropylcellulose) (HPC) 105 % of control | dose: 50.0 mg/kg/injection, schedule: Q04DX003 (ip), vehicle: Klucel (hydroxypropylcellulose) (HPC) 100 % of control

CC(C)(C)OC(=O)NN=C1CCC(C(C)(C)C)CC1 (stereo unspecified)
inactive: dose: 100.0 mg/kg/injection, schedule: Q04DX003 (ip), vehicle: acetone 98 % of control | dose: 200.0 mg/kg/injection, schedule: Q04DX003 (ip), vehicle: acetone 96 % of control | dose: 400.0 mg/kg/injection, schedule: Q04DX003 (ip), vehicle: acetone 93 % of control

O=[N+]([O-])c1ccccc1CN1c2ccccc2N=C2c3ccccc3CC21 (stereo unspecified)
inactive: dose: 100.0 mg/kg/injection, schedule: Q04DX003 (ip), vehicle: Klucel (hydroxypropylcellulose) (HPC) 88 % of control | dose: 200.0 mg/kg/injection, schedule: Q04DX003 (ip), vehicle: Klucel (hydroxypropylcellulose) (HPC) 91 % of control | dose: 400.0 mg/kg/injection, schedule: Q04DX003 (ip), vehicle: Klucel (hydroxypropylcellulose) (HPC) 100 % of control

CCOC(=O)C(C)Oc1ccc([N+](=O)[O-])cc1Cl (stereo unspecified)
inactive: dose: 100.0 mg/kg/injection, schedule: Q01DX009 (ip), vehicle: gum acacia 94 % of control | dose: 200.0 mg/kg/injection, schedule: Q01DX009 (ip), vehicle: gum acacia 99 % of control | dose: 400.0 mg/kg/injection, schedule: Q01DX009 (ip), vehicle: gum acacia 99 % of control

Cc1cc(C(c2ccccc2)c2ccccc2)cc(C)c1O
inactive: dose: 100.0 mg/kg/injection, schedule: Q01DX001 (ip), vehicle: Klucel (hydroxypropylcellulose) (HPC) 98 % of control | dose: 200.0 mg/kg/injection, schedule: Q01DX001 (ip), vehicle: Klucel (hydroxypropylcellulose) (HPC) 93 % of control | dose: 400.0 mg/kg/injection, schedule: Q01DX001 (ip), vehicle: Klucel (hydroxypropylcellulose) (HPC) 92 % of control

C=[CH][Pb]([CH]=C)([O]C(=O)C(C)C)[O]C(=O)C(C)C
inactive: dose: 5.0 mg/kg/injection, schedule: Q04DX003 (ip), vehicle: saline 104 % of control | dose: 10.0 mg/kg/injection, schedule: Q04DX003 (ip), vehicle: saline 106 % of control | dose: 20.0 mg/kg/injection, schedule: Q04DX003 (ip), vehicle: saline 101 % of control

O=C1NCCCN1C1OC(CO)C(O)C1O (stereo unspecified)
inactive: dose: 100.0 mg/kg/injection, schedule: Q01DX005 (ip), vehicle: saline 107 % of control | dose: 200.0 mg/kg/injection, schedule: Q01DX005 (ip), vehicle: saline 104 % of control
